Columns and labels:
[1] = biological target: IMPAD1 (Homo sapiens (Human), UniProt Q9NX62); assay: IMPAD1 in vitro activity assay; type: biochemical
Protocol: IMPAD1 Assay. Working stock solutions of IMPAD1 (0.1 mg/mL in 1× activity assay buffer), adenosine 3′,5′-diphosphate (PAP; dissolved first in DMSO to make stock solution then diluted to 200 μM in 1× assay buffer), and compound of interest in DMSO were prepared. Two technical replicates were assayed for each sample. Reaction mixes were prepared by mixing 6 μL IMPAD1 stock solution, 2.4 μL compound of interest stock or DMSO, 21.6 μL 1× assay buffer to make 30 μL reaction mix. Amount of reaction mix was scaled accordingly to number of samples assayed. 15 μL of reaction mix was dispensed to each well (384-well plate). 15 μL 200 μM PAP stock solution was added to each well. The reaction was incubated at 37° C. for 45 minutes, then quenched by addition of 15 μL of malachite green solution A, followed by addition of 15 μL of malachite green solution B. The plate was left at room temperature for 20 minutes for color stabilization, then absorbance was read at 620 nm. Phosphate standard curve generation was identical to that described under “Optimized Coupled Chromogenic SULT2B1b Activity Assay”, 384-well format. […]
Percent inhibition was calculated as: 100−[100×[(Phosphate produced per wellaverage, compound of interest−Phosphate produced per wellaverage, PAP)/(Phosphate produced per wellaverage, IMPAD1−Phosphate produced per wellaverage, PAP)]].

[2] = tested on: whole cell CS levels in MDG; assay: Whole cell cholesterol sulfate quantification, MDG; type: cell-based, human; conditions: 6.25 μM, 72 hours
Protocol: General Whole Cell Cholesterol Sulfate Quantification. 60×15 mm tissue culture dishes were seeded with MCF-7 at 2×10^6 cells/dish or T47D at 1×10^6 cells per dish, 5 mL total media volume, and allowed to adhere overnight. Compounds of interest were dissolved in DMSO. Cells were treated with 25 μL 1.25 mM compound of interest stock (6.25 μM final compound concentration, 0.5% final DMSO concentration) or DMSO for 72 hours. To harvest, media was aspirated, and cells were washed once with PBS before detaching with trypsin. Trypsin was quenched with media. Cells were centrifuged at 300 xg for 3 minutes and supernatant was discarded. Cells were resuspended in media and counted using a Countess 3 automated cell counter (Thermo Fisher Scientific). 1.5×10^6 cells were collected, washed twice with 1 mL PBS, then pelleted and stored at −80° C. until lysis. […] 100 μL of supernatant was transferred to an empty Eppendorf tube and submitted for LC-MS/MS quantification (UIUC Metabolomics Center), along with 5 mM cholesterol sulfate sodium salt standard.
General LC-MS/MS Quantification Method. Both DHEAS and CS samples were analyzed by 6500 QTRAP (Sciex, Redwood City, CA) liquid chromatography-tandem mass spectrometry. […] Cholesterol-sulfate and DHEA-sulfate were detected by multiple reaction monitoring (MRM) at m/z 465→97.0 and 367.0→97.0 respectively. […]

[3] = tested on: free cholesterol levels in MCF-7; assay: Whole cell cholesterol assay; type: cell-based, human; conditions: MCF-7, 6.25 μM, 72 hours
Protocol: Whole Cell Cholesterol Assay. Assay was run according to manufacturer's instructions. Briefly, 5000 MCF-7 cells were plated in 99 μL media in a 96-well plate and allowed to adhere overnight before DMSO solutions of compounds were added to each well. Final concentration of DMSO in each well is 1%, final volume: 100 μL. At the end of 72 hours, media was aspirated, and cells were washed twice with 100 μL PBS. 50 μL of cholesterol lysis solution was added and cells were incubated for 30 minutes at 37° C. 50 μL of sample was then transferred to a 96-well white walled assay plate. 50 μL of cholesterol detection reagent was added to all wells and incubated at room temperature for 1 hour. Luminescence was read using a SpectraMax M3 plate reader (Molecular Devices). Cholesterol levels were determined by use of a cholesterol standard curve.

[4] = tested on: STS and SULT2B1b levels in T47D; assay: Western blot of STS and SULT2B1b after treatment, T47D; type: cell-based; conditions: 6.25 μM, 72 hours
Protocol: Western Blot Analysis. Cells were lysed using RIPA buffer containing phosphatase (BioVision) and protease inhibitor cocktail (Calbiochem). Protein concentrations were determined using the BCA assay (Pierce). Lysates containing 15 μg of protein were loaded onto 4-20% gradient gels (BioRad), and SDS-PAGE was run. Proteins were then transferred onto membrane (PVDF Millipore) for Western Blot analysis. Blots were blocked with BSA solution (2 g in 40 mL TBST) for one hour followed by primary antibody addition and incubation overnight (using manufacturer's recommended dilutions). Following overnight incubation, blots were washed with TBST, and incubated with HRP-linked secondary antibody for 1 hour in TBST. Blots were washed, then imaged with ChemiDoc after incubation with SuperSignal West Pico Solution following manufacturer's procedures.

[5] = Pharmacokinetic mouse studies; type: in vivo, C57BL/6 mice; conditions: for concentration in the serum: mice
Protocol: Pharmacokinetic Analysis. […] Whole blood was collected, centrifuged, and EDTA serum separated for quantification by […] methods (UIUC Metabolomics Center, Urbana, IL).
Pharmacokinetic mouse studies: Compound (3) was formulated in 50% DMSO, 50% Peg400 at 40 mg/mL (for 200 mg/kg injection), Compound was injected intraperitoneally into female C57BL/6 mice (3 per time point). Blood from the mice were harvested at each time point. Serum was separated and concentration in the serum was quantified by LC-MS/MS.

[6] = female, mouse, 200 mg/kg, C57BL/6 mice, single IP dose, serum

Chain of IMPAD1 (Q9NX62 whole entry): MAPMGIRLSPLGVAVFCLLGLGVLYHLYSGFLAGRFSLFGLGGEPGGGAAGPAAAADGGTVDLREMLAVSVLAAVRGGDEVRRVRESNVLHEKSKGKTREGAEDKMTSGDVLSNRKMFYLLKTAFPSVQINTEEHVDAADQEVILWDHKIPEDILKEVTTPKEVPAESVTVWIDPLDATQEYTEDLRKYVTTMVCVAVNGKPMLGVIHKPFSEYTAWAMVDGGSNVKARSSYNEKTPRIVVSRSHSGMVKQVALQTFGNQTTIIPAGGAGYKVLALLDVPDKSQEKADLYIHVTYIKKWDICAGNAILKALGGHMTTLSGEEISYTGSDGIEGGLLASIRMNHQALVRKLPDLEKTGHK

Row | Compound | inhibition of IMPAD1 [1] | whole cell CS levels vs DMSO [2] | free cholesterol levels vs DMSO [3] | STS and SULT2B1b levels after treatment [4] | CL ([5]; C57BL/6 mice, single IP dose, serum) [mL/min/kg] | AUC [5, 6] [ng·h/mL] | Cmax [5, 6] [ng/mL] | MRT [5, 6] [h] | half-life [5, 6] [h] | concentration in the serum ([5]; 200 mg/kg intraperitoneally) [µM] | concentration in the serum ([5]; stated as 150 mg/kg IP) [µM]
1 | C[C@]12CCC(=O)N(Cc3ccc(Cl)cc3)C1=CC[C@@H]1[C@@H]2C(=O)C[C@]2(C)C(=O)CC[C@@H]12 [Compound 1, (4aR,4bS,6aS,9aS,9bS)-1-(4-chlorobenzyl)-4a,6a-dimethyl-3,4,4a,6,6a,8,9,9a,9b,10-decahydro-1H-indeno[5,4-f]quinoline-2,5,7(4bH)-trione] | does not inhibit |  |  |  |  |  |  |  |  |  | 
2 | C[C@]12CCC(=O)N(Cc3ccc(Br)cc3)C1=CC[C@@H]1[C@@H]2C(=O)C[C@]2(C)C(=O)CC[C@@H]12 [Compound 3, (4aR,4bS,6aS,9aS,9bS)-1-(4-bromobenzyl)-4a,6a-dimethyl-3,4,4a,6,6a,8,9,9a,9b,10-decahydro-1H-indeno[5,4-f]quinoline-2,5,7(4bH)-trione] |  | confirmed | no statistical difference | unchanged | 90.56 | 36800 | 19800 | 1.86 | 1.29 | ~50 | ~50

— US20240400606A1, “SMALL MOLECULE ACTIVATORS OF THE IMMUNE SYSTEM” (THE BOARD OF TRUSTEES OF THE UNIVERSITY OF ILLINOIS, priority 2021, published 2024)
